Data published in US20130324522A1, “INSECT ODORANT RECEPTOR ANTAGONISTS” (THE ROCKEFELLER UNIVERSITY, priority 2010, published 2013).
Read-outs that look alike come from different tables or passages of the source.

What was measured:
Or47a/Or83b = biological target: T1, Or47a/Or83b (Drosophila melanogaster, UniProt P81921+Q9VNB5); experiment: Ca2+-imaging of stable Flip-In T-Rex cell line Or47a/Or83b; format: cell-based; conditions: for IC50: read-out: IC50 OR47a; for inhibition at 4 µM: read-out: Percent Inhibition OR47a OR83b
T1 construct: Full-length cDNAs for mosquito (Anopheles gambiae) odorant receptor (OR1, OR2, OR7, OR8, OR28), and fly (Drosophila melanogaster) odorant receptor (Or47a, Or83b); expressed in transfected cells
T1 sequence (P81921 1-385): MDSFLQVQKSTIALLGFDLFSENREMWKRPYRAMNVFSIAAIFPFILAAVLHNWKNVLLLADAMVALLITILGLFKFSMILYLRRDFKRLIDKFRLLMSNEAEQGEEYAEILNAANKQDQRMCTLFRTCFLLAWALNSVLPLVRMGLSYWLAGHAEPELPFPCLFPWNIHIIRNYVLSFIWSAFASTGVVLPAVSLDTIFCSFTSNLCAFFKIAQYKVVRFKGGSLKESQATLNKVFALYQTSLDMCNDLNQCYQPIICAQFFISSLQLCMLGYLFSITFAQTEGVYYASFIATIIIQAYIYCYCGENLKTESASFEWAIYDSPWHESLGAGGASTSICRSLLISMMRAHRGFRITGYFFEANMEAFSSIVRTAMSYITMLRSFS
T1 sequence (Q9VNB5 1-486): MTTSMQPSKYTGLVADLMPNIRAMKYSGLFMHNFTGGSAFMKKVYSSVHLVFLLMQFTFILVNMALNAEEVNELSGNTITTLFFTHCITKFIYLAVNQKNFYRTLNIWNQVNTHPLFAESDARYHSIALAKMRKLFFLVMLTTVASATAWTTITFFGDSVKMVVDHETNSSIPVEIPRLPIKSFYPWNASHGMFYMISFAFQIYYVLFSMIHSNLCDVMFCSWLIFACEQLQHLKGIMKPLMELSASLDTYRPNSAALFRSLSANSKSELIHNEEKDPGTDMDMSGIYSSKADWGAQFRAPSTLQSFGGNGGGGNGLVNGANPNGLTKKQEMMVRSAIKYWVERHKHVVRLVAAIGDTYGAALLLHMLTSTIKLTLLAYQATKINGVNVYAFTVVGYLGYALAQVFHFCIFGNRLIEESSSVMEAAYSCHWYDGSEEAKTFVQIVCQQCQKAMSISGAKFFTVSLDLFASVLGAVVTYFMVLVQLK
Outline: (§1)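 Flp-In T-REx stable lines (Drosophila Or47a/Or83b or mouse 5HT3), 10,000 cells/well cultured 2 days, induced with tetracycline 1 day before assay.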

[1] = biological target: T2, serotonin receptor (5HT3) (Mus musculus, UniProt P23979); experiment: Ca2+-imaging of stable Flip-In T-Rex cell line 5HT3; format: cell-based; conditions: for inhibition at 4 µM: compound applied at 4 μM, read-out: Percent Inhibition 5HT3; for IC50: Table B, read-out: IC50 5HT3
T2 construct: Full-length cDNAs for mosquito (Anopheles gambiae) odorant receptor; expressed in transfected cells
T2 sequence (P23979 24-489): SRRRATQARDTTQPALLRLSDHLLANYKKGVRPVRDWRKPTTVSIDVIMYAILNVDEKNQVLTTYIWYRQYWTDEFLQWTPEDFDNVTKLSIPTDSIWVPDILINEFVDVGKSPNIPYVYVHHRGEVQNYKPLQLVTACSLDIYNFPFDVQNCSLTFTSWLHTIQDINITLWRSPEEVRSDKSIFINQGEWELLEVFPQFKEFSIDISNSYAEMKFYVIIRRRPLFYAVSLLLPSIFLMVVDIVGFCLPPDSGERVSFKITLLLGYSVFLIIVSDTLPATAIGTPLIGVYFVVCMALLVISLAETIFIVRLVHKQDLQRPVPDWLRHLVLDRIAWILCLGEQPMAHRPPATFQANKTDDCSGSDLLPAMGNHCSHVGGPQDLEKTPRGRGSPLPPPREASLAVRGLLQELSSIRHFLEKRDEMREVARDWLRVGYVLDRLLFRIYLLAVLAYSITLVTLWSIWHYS
Outline: as §1

SMILES	IC50 (Or47a/Or83b; Table B)	inhibition at 4 µM (Or47a/Or83b; compound applied at 4 μM)	inhibition at 4 µM [1]	IC50 [1]	IC50 (Or47a/Or83b)	inhibition at 4 µM (Or47a/Or83b)
COCCN(Cc1cc(Cl)ccc1OS(=O)(=O)c1ccc(F)cc1)C(=O)C1CCC1 [RU-0035287]	< 100 nM	51 to 74%	26 to 50%			
COc1nc(OCC#N)nc(N2CCCCC2)n1 [RU-0006256]	> 1000 nM	51 to 74%	26 to 50%			
CN(Cc1ccccc1)C(=O)CCC1CCN(C(=O)CCOc2ccccc2)CC1 [RU-0028727]	< 100 nM	> 75%	51 to 74%	> 1000 nM		
CCOc1ccccc1C(=O)NNC(=O)COc1cc(C)cc(C)c1 [RU-0023245]	> 1000 nM	> 75%	26 to 50%			
COc1ccc(C(=O)c2ccccc2)c(O)c1O [RU-0001617]	> 1000 nM	51 to 74%	26 to 50%			
CCOC(=O)C(c1cccc(OC)c1)C1C=CC(NC(=O)c2cccs2)C1 (centres unmarked) [RU-0074560]		26 to 50%	< 25%			
CN(C)c1nc(N(C)C)nc(N(C)C)n1 [RU-0000619]	> 1000 nM	51 to 74%	26 to 50%			
C=C[C@@](C)(O)CCC1C(=C)CCC2[C@@](C)(CO)CCC[C@]12C (some centres unmarked) [RU-0001327]		< 25%	26 to 50%			
COc1ccc(N2CCN(C(=O)C3CC=CCC3C(=O)NC(c3ccccc3)c3ccccn3)CC2)cc1 (centres unmarked) [RU-0026507]		26 to 50%	26 to 50%			
CCOC(=O)C(c1ccc(OC)c(OC)c1)C1C=CC(NC(=O)c2ccc3c(c2)OCO3)C1 (centres unmarked) [RU-0049030]		26 to 50%	< 25%			
Cc1ccc(-n2nc(C)c(CCC(=O)N3CCc4ccccc4C3)c2C)cc1Cl [RU-0026074]	> 1000 nM	51 to 74%	< 25%			
COc1ccc(-c2nnc(SCc3ccc(C#N)cc3)n2-c2ccc(C)cc2)cc1 [RU-0046426]		26 to 50%	26 to 50%			
COc1nc(NC(C)C)nc(NC(C)C)n1 [RU-0001534]	> 1000 nM	51 to 74%	26 to 50%			
COCCCN(CC(=O)N1CCc2sccc2C1COc1cccc(OC)c1)C(=O)Cc1ccccc1 (centres unmarked) [RU-0036264]		< 25%	< 25%			
Cc1cc(C)c2c(c1C(=O)N1CCC3(CC1)C(=O)NCN3c1ccccc1)CC(C)(C)C2=O [RU-0025771]			26 to 50%		> 1000 nM	> 75%
CC(NCc1ccccc1)c1nc2ccccc2c(=O)n1-c1ccc(Cl)cc1 (centres unmarked) [RU-0072535]		26 to 50%	< 25%			
CCCCc1nc(CN2CCc3c([nH]c4ccccc34)C2c2cccc(OC)c2OC)c[nH]1 (centres unmarked) [RU-0031879]	> 1000 nM	51 to 74%	< 25%			
COCCCN(CC(=O)N1CCc2sccc2C1c1ccc(OC)cc1)C(=O)C(C)(C)CCl (centres unmarked) [RU-0069950]	> 1000 nM	51 to 74%	51 to 74%	> 1000 nM		
COc1ccc(N2CCN(C(=O)C3CC=CCC3C(=O)NCCCCc3ccccc3)CC2)cc1 (centres unmarked) [RU-0026167]	> 1000 nM	51 to 74%	< 25%			
Cc1ccc(CN(Cc2ccc(F)cc2)C(=O)CN(C(=O)NC(C)(C)C)C2CC2)s1 [RU-0052360]		26 to 50%	< 25%			
COc1cc(OC)cc(C2NC(=O)N(C)C3=C2C(=O)N(C2CCCCC2)C3)c1 (centres unmarked) [RU-0047750]		26 to 50%	26 to 50%			
COCCCN(CC(=O)N1CCc2sccc2C1COc1cccc(OC)c1)C(=O)c1ccccc1OC (centres unmarked) [RU-0036294]		51 to 74%	< 25%			
CC(NC(=O)c1cc2n(n1)CCN(Cc1c(Cl)cccc1Cl)C2=O)c1ccccc1 (centres unmarked) [RU-0045115]		26 to 50%	< 25%			
COc1ccccc1N1CCN(C(=O)c2cc3n(n2)CCN(Cc2c(F)cccc2Cl)C3=O)CC1 [RU-0043595]	> 1000 nM	51 to 74%	51 to 74%	> 1000 nM		
CCN(CC)C(=O)Oc1ccc2c(ccn2Cc2cccc(C)c2)c1NC(=O)[C@H](C)OC(C)=O [RU-0075468]		< 25%	< 25%			
COCCNC(=O)c1ccc(CSc2nnc(-c3ccc(C)cc3)n2-c2ccccc2F)cc1 [RU-0051652]		< 25%	26 to 50%			
O=C1CN(S(=O)(=O)c2c(F)cc(F)cc2F)CC2c3cccc(F)c3CCN12 (centres unmarked) [RU-0076832]		< 25%	26 to 50%			
COC(=O)C(Cc1ccccc1)NC(=O)C1CC1(c1ccccc1)c1ccccc1 (centres unmarked) [RU-0028029]	> 1000 nM	> 75%	26 to 50%			
CCOCCCN(CC(=O)N(Cc1ccc2c(c1)OCO2)Cc1sccc1C)C(=O)NC(C)(C)C [RU-0052340]		26 to 50%	< 25%			
Cc1ccc(CN(CCc2ccccc2)C(=O)CN(C(=O)NC(C)(C)C)C(C)C)o1 [RU-0072008]		26 to 50%	< 25%			
